Measured values published in ChEMBL document CHEMBL1132047, “Nonpeptide oxytocin antagonists: analogs of L-371,257 with improved potency” (Bioorg Med Chem Lett, 1999).

Key:
[1] = Oral bioavailability in rat (dose 20 mg/kg); assay type: ADME, organism-based; conditions: in vivo
[2] = Compound was evaluated in vivo in rat for the plasma half-life at a iv dose of 3 mg/kg and oral dose of 10 mg/kg and experiment by using concentration vs time curve; assay type: ADME, organism-based
Oxytocin receptor [3] = biological target: T1, Oxytocin receptor (Homo sapiens, UniProt P30559); experiment: Binding affinity for human oxytocin receptor
T1 sequence (P30559 whole entry): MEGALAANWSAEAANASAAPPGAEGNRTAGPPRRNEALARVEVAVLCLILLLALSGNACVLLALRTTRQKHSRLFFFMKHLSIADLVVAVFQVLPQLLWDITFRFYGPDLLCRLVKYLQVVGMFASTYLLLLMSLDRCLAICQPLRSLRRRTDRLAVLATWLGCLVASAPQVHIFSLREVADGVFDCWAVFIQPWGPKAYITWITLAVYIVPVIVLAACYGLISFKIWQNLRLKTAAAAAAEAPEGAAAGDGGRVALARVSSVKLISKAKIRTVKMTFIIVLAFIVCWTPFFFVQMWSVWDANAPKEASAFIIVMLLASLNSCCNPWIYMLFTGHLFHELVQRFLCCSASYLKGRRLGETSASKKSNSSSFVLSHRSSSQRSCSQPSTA

Oxytocin receptor [4] = biological target: T2, Oxytocin receptor (Rattus norvegicus, UniProt P70536); experiment: Binding affinity for rat uterine oxytocin receptor (rOTr)
T2 sequence (P70536 whole entry): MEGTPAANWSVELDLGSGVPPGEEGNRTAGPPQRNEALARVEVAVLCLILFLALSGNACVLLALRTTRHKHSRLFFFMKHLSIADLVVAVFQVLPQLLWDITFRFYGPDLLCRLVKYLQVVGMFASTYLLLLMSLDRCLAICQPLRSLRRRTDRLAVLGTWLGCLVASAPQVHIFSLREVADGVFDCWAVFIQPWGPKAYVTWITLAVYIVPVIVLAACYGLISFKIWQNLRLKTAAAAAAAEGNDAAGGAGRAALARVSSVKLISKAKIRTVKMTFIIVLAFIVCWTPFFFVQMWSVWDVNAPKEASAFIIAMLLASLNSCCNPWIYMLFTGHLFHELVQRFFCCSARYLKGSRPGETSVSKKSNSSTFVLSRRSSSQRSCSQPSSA

Rattus norvegicus [5] = experiment: Compound tested in vivo for antagonist potency against oxytocin (OT)-induced in rats by id administration; assay type: functional
Rattus norvegicus [6] = experiment: Compound tested in vivo for antagonist potency against oxytocin (OT)-induced in rats by iv administration; assay type: functional
[7] = Compound was evaluated for pharmacokinetic property in rats after an oral dose of 10 mg/kg and the value was reported as oral bioavailability (F); assay type: ADME, organism-based; conditions: rat, in vivo
Vasopressin V2 receptor [8] = biological target: Vasopressin V2 receptor (Homo sapiens, UniProt P30518); experiment: Binding affinity towards cloned human Vasopressin V2 receptor by using functional assay
Sequence of Vasopressin V2 receptor (Homo sapiens, UniProt P30518) (P30518 whole entry): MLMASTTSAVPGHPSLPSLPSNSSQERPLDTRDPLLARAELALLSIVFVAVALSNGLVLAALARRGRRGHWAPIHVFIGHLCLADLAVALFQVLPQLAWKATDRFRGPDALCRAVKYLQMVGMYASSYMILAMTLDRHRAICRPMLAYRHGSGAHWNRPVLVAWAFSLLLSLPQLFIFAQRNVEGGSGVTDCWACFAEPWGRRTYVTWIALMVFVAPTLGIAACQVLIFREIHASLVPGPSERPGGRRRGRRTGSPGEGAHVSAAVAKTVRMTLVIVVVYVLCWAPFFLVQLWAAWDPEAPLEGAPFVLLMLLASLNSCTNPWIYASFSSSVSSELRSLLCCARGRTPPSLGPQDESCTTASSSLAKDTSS

Vasopressin V2 receptor [9] = biological target: Vasopressin V2 receptor (Rattus norvegicus, UniProt Q00788); experiment: Binding affinity towards rat kidney Vasopressin V2 receptor by using functional assay
Sequence of Vasopressin V2 receptor (Rattus norvegicus, UniProt Q00788) (Q00788 whole entry): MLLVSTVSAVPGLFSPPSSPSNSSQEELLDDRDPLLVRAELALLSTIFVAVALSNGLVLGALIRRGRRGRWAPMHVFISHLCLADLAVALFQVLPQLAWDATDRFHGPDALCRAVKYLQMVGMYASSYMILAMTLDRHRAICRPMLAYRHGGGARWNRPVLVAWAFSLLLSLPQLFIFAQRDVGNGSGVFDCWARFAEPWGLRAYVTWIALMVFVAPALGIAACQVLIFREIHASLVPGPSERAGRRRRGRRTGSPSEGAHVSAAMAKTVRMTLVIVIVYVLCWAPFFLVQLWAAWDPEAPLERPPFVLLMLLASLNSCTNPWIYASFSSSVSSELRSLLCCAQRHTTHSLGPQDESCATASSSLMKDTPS

Vasopressin V1a receptor [10] = biological target: Vasopressin V1a receptor (Rattus norvegicus, UniProt P30560); experiment: Binding affinity towards rat liver Vasopressin V1a receptor by using functional assay
Sequence of Vasopressin V1a receptor (Rattus norvegicus, UniProt P30560) (P30560 whole entry): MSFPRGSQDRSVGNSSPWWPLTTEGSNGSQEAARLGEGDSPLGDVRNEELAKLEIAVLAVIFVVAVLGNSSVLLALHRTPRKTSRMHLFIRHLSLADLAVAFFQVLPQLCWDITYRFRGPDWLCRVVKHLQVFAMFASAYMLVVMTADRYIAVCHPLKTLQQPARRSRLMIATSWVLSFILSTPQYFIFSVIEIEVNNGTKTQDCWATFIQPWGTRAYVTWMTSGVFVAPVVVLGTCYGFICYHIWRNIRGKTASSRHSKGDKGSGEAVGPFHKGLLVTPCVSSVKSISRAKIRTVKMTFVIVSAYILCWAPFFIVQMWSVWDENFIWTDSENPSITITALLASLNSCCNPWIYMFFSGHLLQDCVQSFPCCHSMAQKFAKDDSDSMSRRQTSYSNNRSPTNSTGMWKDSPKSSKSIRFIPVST

Vasopressin V1a receptor [11] = biological target: Vasopressin V1a receptor (Homo sapiens, UniProt P37288); experiment: Binding affinity towards human Vasopressin V1a receptor by using functional assay
Sequence of Vasopressin V1a receptor (Homo sapiens, UniProt P37288) (P37288 whole entry): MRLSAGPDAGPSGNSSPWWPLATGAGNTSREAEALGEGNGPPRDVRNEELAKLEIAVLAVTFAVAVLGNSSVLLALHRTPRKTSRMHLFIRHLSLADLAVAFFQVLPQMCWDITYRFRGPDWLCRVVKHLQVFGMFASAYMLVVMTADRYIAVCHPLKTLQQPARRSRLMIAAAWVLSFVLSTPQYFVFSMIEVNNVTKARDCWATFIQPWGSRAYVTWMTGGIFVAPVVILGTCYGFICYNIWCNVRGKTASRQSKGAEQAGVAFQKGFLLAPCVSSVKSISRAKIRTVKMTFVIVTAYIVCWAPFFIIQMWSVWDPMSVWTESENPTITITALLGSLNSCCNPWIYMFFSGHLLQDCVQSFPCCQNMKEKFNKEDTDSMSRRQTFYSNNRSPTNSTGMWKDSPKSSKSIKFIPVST

[12] = Compound was evaluated in vivo in rat for the plasma half-life at a oral dose of 20 mg/kg experiment by using concentration vs time curve; assay type: ADME, organism-based; design: dose 20 mg/kg, route oral
Rattus norvegicus [13] = experiment: Compound tested in vivo for antagonist potency against oxytocin (OT)-induced contractions in rat uterus by iv administration; assay type: functional

Compound | Ki (Oxytocin receptor [3]) | Ki (Oxytocin receptor [4]) | AD50 (Rattus norvegicus [5]) | AD50 (Rattus norvegicus [6]) | other results
O=C(Cc1ccc(OC2CCN(CC3CC3)CC2)cc1OCC(F)(F)F)N1CCC(N2C(=O)OCc3ccccc32)CC1 | 1 nM | 1.2 nM | 22 mg/kg | 0.69 mg/kg | bioavailability [1]: 45%; half-life [2]: 1.7 h
CC(=O)N1CCC(Oc2ccc(CC(=O)N3CCC(N4C(=O)OCc5ccccc54)CC3)cc2)CC1 | 390 nM | 1600 nM |  |  | 
O=C(Cc1ccccc1OCC(F)(F)F)N1CCC(N2C(=O)OCc3ccccc32)CC1 | 4.5 nM | 6 nM | >10 mg/kg | 1 mg/kg | 
CC(=O)N1CCC(Oc2ccc(CC(=O)N3CCC(N4C(=O)OCc5ccccc54)CC3)c(OCC(F)(F)F)c2)CC1 | 1.4 nM | 0.71 nM | 0.64 mg/kg | 0.06 mg/kg | bioavailability [1]: 19%; half-life [2]: 0.27 h; bioavailability [7]: 19%; Ki (Vasopressin V2 receptor [8]): 130 nM; Ki (Vasopressin V2 receptor [9]): 150 nM; Ki (Vasopressin V1a receptor [10]): 2 nM; Ki (Vasopressin V1a receptor [11]): 740 nM
COc1cc(OC2CCN(C(C)=O)CC2)ccc1CC(=O)N1CCC(N2C(=O)OCc3ccccc32)CC1 | 9.8 nM | 36 nM |  |  | 
CC(=O)N1CCC(Oc2ccc(CC(=O)N3CCC(N4C(=O)OCc5ccccc54)CC3)c(OC(F)(F)F)c2)CC1 | 2.4 nM | 2.8 nM |  | 0.27 mg/kg | 
COc1ccc(CCC(=O)N2CCC(N3C(=O)OCc4ccccc43)CC2)c(OC)c1 | 240 nM | 520 nM |  |  | 
COc1cc(OC2CCN(C(C)=O)CC2)ccc1C(=O)N1CCC(N2C(=O)OCc3ccccc32)CC1 |  |  | 2.5 mg/kg |  | half-life [12]: 0.5 h; AD50 (Rattus norvegicus [13]): 0.55 mg/kg
O=C(Cc1ccc(N2CCOCC2)cc1OCC(F)(F)F)N1CCC(N2C(=O)OCc3ccccc32)CC1 | 0.86 nM | 0.6 nM | 0.97 mg/kg | 0.077 mg/kg | 
COc1ccc(CC(=O)N2CCC(N3C(=O)OCc4ccccc43)CC2)c(OC)c1 | 33 nM | 37 nM |  |  | 
O=C(Cc1ccc(OCCN2CCOCC2)cc1OCC(F)(F)F)N1CCC(N2C(=O)OCc3ccccc32)CC1 | 1.4 nM | 2.1 nM |  | 0.13 mg/kg | bioavailability [1]: 31%; half-life [2]: 2.8 h
